Key:
22Rv1 = experiment: MTT assay, cell viability; format: cell-based; details: Homo sapiens, 22Rv1, 48 h of treatment, mean ± SD
Excerpt: (§1) To examine the anticancer potential and selectivity of NB, we used a panel of six human prostate cancer cell lines, harboring different levels of treatment resistance to representatively reflect the heterogeneity of the disease. […] Additionally, four human noncancer cells lines were utilized in order to determine the selectivity of NB towards prostate cancer cells, i.e., prostate noncancer PNT2 and RWPE-1 cells, human embryonic kidney HEK 293T cells, and human fibroblasts MRC-9. The different cell lines were treated with NB and the cell viability was examined using MTT assay (Figure 1). The mean IC50 of NB and docetaxel (used as a reference substance) in noncancerous cell lines was divided by the mean IC50 in the prostate cancer cell lines to determine the selectivity index (SI).
(§2) The MTT assay was used to monitor the effect of the drugs on cell viability in terms of metabolic activity, as previously reported. First, preincubation of the cells in 96-well plates (6 × 10^3 cells/well in 100 μL/well) was performed overnight in the correspondent culture medium. Next, the medium was exchanged for fresh medium containing the investigated compounds or a vehicle (100 μL/well). Cells were then incubated for 48 h, unless otherwise stated. Then, 10 μL/well of 3-(4,5-dimethylthiazol-2-yl)-2,5-diphenyltetrazolium bromide reagent (MTT, 5 mg/mL) were added. After 2–4 h of additional incubation the media was removed, and the plates were dried. Finally, 50 μL/well of DMSO were added to solve the formed formazan crystals produced by the metabolic active cells and Infinite F200PRO reader (TECAN, Männedorf, Switzerland) was used to measure the cell viability. The results were proceeded with a GraphPad Prism software v.9.1.1 (GraphPad Software, San Diego, CA, USA). Cells treated with the solvent of the drugs alone were used as a control (100% alive cells). The effect of the drugs on cell viability is represented as IC50.

DU145 = experiment: MTT assay, cell viability; format: cell-based; details: Homo sapiens, DU-145, DU145, 48 h of treatment, mean ± SD
Excerpt: as §1, §2

HEK293 = experiment: MTT assay, cell viability; format: cell-based; details: Homo sapiens, HEK293, 48 h of treatment, mean ± SD
Excerpt: as §1, §2

LNCaP = experiment: MTT assay, cell viability; format: cell-based; details: Homo sapiens, 48 h of treatment, mean ± SD
Excerpt: as §1, §2

MRC-9 = experiment: MTT assay, cell viability; format: cell-based; details: Homo sapiens, MRC9, MRC-9, 48 h of treatment, mean ± SD
Excerpt: as §1, §2

PC3 = experiment: MTT assay, cell viability; format: cell-based; details: Homo sapiens, PC-3, PC3, 48 h of treatment, mean ± SD
Excerpt: as §1, §2

PNT2 = experiment: MTT assay, cell viability; format: cell-based; details: Homo sapiens, PNT2, 48 h of treatment, mean ± SD
Excerpt: as §1, §2

RWPE-1 = experiment: MTT assay, cell viability; format: cell-based; details: Homo sapiens, RWPE-1, 48 h of treatment, mean ± SD
Excerpt: as §1, §2

VCaP = experiment: MTT assay, cell viability; format: cell-based; details: Homo sapiens, 48 h of treatment, mean ± SD
Excerpt: as §1, §2

noncancer cells = experiment: MTT assay, mean IC50 in noncancer cell panel; format: cell-based; details: Homo sapiens, mean over PNT2, RWPE-1, HEK293, MRC-9, 48 h
Excerpt: as §1
The MTT assay was used to monitor the effect of the drugs on cell viability in terms of metabolic activity, as previously reported. First, preincubation of the cells in 96-well plates (6 × 10^3 cells/well in 100 μL/well) was performed overnight in the correspondent culture medium. Next, the medium was exchanged for fresh medium containing the investigated compounds or a vehicle (100 μL/well). […] Finally, 50 μL/well of DMSO were added to solve the formed formazan crystals produced by the metabolic active cells and Infinite F200PRO reader (TECAN, Männedorf, Switzerland) was used to measure the cell viability. […]

22Rv1 cells = experiment: Trypan blue exclusion assay; format: cell-based; details: Homo sapiens, 22Rv1, trypan blue exclusion
Protocol: Figure 2 Trypan blue exclusion assay. 22Rv1 cells were treated for 48 h (A) or 168 h (B) with the indicated concentrations of NB. The cells were harvested, stained, and counted with an automatic Vi-CELL cell counter device. Number of replicates n = 3.
The trypan blue exclusion assay was used to monitor the effect of the drugs on cell viability regarding cellular membrane integrity and was performed as described before. In brief, cells (2 × 10^5 cells/well) were seeded in 6-well plates (1 mL/well) and incubated overnight. Next, the media was substituted with fresh media (1 mL/well) containing drugs at indicated concentrations. Cells were treated for 48 h, harvested by trypsination, and stained with trypan blue. The automatic Beckman Coulter Vi-CELL (Beckman Coulter, Krefeld, Germany) was used to count trypan blue-positive and -negative cells. Trypan blue-negative cells were postulated to have an intact cellular membrane (i.e., alive cells), whereas trypan blue-positive cells were assumed to have damaged cellular membrane (i.e., dead cells).

caspase-3 in 22Rv1 cells = experiment: Western blotting, caspase-3 cleavage; format: cell-based, human; details: 22Rv1, 48 h after drug exposure
Protocol: We examined several time points, specifically, 15 min, 2 h, and 48 h (Figure 6).
Figure 6 Validation of kinome analysis data. 22Rv1 cells were treated with 1 µM or 10 µM of NB for the indicated time. The protein expression was analyzed by Western blotting using total protein load equal to 30 µg/slot. α-Tubulin was used as a loading control.
The Western blot assay was executed as previously described: 1 × 10^6 cells were seeded in Petri dishes (ø 6 cm, 5 mL/dish) and incubated overnight. On the next day, the cells were treated with the compounds in fresh culture media (5 mL/dish) for the indicated time. Next, cells were harvested with a cell scraper and lysed in lysis buffer including protease and phosphatase inhibitors cocktail (Roche, Mannheim, Germany). Cell debris were removed from the protein lysates via centrifugation. Afterwards, the cell-free protein mixtures were separated in gradient ready-made Mini-PROTEAN® TGX Stain-Free^TM gels (Bio-Rad, Hercules, CA, USA) using SDS-PAGE (sodium dodecylsulfate polyacrylamide gel electrophoresis). Then, the proteins were blotted onto ø 0.2 µm pore PVDF membrane. The membrane was blocked and consequently treated with primary and secondary antibodies for protein detection. The signals were detected using the ECL chemiluminescence system (Thermo Scientific, Rockford, IL, USA).

PC-3 = system: PC-3; set-up: method as in PMID 27355960; details: cited from earlier work
[1] = set-up: method as in PMID 27355960; details: no hemolytic activity; cited from earlier work
splenocytes = system: splenocytes; set-up: method as in PMID 27355960; details: cited from earlier work
[2] = molecular target: p-glycoprotein (p-gp, MDR1) in PC3-DR cells (Homo sapiens, UniProt P08183); experiment: Calcein-AM exclusion assay, p-glycoprotein activity
Sequence of p-glycoprotein (p-gp, MDR1) in PC3-DR cells (P08183 whole entry): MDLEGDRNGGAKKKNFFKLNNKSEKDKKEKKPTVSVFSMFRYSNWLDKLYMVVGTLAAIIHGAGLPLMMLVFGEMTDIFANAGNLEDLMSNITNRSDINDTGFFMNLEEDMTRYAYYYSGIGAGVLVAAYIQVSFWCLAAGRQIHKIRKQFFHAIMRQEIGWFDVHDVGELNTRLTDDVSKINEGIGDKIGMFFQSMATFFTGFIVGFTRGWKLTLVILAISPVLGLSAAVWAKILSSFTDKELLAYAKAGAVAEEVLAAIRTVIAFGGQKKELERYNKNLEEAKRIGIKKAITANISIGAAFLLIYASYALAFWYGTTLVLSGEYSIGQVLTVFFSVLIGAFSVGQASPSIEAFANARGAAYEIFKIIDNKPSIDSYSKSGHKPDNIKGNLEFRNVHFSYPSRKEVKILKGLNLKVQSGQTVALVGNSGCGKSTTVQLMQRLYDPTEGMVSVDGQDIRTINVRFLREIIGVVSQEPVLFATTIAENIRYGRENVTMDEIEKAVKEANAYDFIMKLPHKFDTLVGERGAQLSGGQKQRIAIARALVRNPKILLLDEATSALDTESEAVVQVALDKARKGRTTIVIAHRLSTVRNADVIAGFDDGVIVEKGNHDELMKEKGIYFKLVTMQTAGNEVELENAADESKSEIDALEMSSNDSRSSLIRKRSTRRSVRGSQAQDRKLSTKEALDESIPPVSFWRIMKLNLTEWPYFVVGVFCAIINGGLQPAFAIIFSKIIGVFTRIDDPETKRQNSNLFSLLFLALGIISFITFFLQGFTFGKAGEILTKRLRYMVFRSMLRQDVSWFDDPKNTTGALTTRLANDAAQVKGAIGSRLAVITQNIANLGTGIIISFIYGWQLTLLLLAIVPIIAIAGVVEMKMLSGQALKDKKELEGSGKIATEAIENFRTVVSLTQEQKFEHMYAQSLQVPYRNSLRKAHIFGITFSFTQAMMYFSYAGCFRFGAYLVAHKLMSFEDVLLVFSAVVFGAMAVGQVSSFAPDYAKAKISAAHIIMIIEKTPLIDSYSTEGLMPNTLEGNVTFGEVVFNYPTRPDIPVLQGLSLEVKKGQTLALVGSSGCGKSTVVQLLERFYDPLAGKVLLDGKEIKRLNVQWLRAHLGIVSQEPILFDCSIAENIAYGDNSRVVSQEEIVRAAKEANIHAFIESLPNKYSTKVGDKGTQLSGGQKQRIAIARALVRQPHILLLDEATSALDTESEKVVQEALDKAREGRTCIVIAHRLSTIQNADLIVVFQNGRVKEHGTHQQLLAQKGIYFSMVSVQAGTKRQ
Excerpt: To further understand the interactions of NB and p-gp, and the effect of NB on p-gp activity, we performed a calcein-AM-exclusion assay. Consequently, p-gp overexpressing PC3-DR cells were chosen as a test model. This assay utilizes calcein-AM (calcein acetoxymethyl ester), a nonfluorescent dye that enters cells through passive diffusion and exits cells through p-gp. Metabolic active cells contain cytosolic esterases that hydrolyze calcein-AM into its green-fluorescent form (calcein). The green fluorescence can be further measured. However, in p-gp overexpressing cells, calcein-AM is excreted out of the cell before it is metabolized. […] Application of p-gp inhibitors, such as tariquidar (TQD), leads to the accumulation of calcein-AM/calcein inside the cells and, therefore, to increased fluorescence. […] In our experiments, PC3-DR cells were exposed to NB for 30 min followed by incubation with calcein-AM.
(A) Effect of NB on calcein accumulation (measures as green fluorescence) in PC3-DR cells. The effect was measures following 30 min incubation with the drug. P-gp inhibitor tariquidar (TQD, 50 nM) was used as a positive control. Number of replicates n = 3.
The experiment was performed as previously described [42]. […] The green fluorescence was measured with Infinite F200PRO reader (TECAN, Männedorf, Switzerland). […]

COc1ccc(C2SSC34CC5(O)C(Cl)C=CC(O)C5ON3C(=O)C2N(C)C4=O)c(O)c1OC (stereo not drawn) [NB, N-methylpretrichodermamide B]
IC50 (22Rv1): 3.02 ± 2.5 µM
IC50 (DU145): 13 ± 2.69 µM
IC50 (HEK293): 9.3 ± 1.57 µM
IC50 (LNCaP): 12.2 ± 2.97 µM
IC50 (MRC-9): 11.1 ± 4.3 µM
IC50 (PC3): 6.03 ± 1.18 µM
IC50 (PNT2): 25.1 ± 5.92 µM
IC50 (RWPE-1): 16.4 ± 1.87 µM
IC50 (VCaP): 0.143 ± 0.145 µM
IC50 (noncancer cells): 15.5 µM
IC50 (22Rv1 cells; 48 h): 0.129 ± 0.062 µM
IC50 (22Rv1 cells; 168 h): 0.276 ± 0.058 µM
caspase-3 cleavage (caspase-3 in 22Rv1 cells): caspase-3 cleavage that was observed
IC50 (PC-3): 5.11 µM
IC50 [1]: ≥ 100 µM
ID50, cytotoxic activity in splenocytes (splenocytes): 62.1 µM
calcein accumulation (green fluorescence), p-gp inhibition ([2]; 30 min exposure, nanomolar concentrations, dose-dependent): significantly increased the green fluorescence
concentration at which an inhibitory effect on p-gp activity was already detected ([2]; calcein-AM, noncytotoxic concentration): 312.5 nM
